The subject of experiment [1] is B09 (DNA, aptamer) GCTAGACGATATTCGTCCATCTCCCGTGCATGCGAGACCGTGAGTTGGACTGACCCGCTTCCGCTGTCAGACTGAATATGTC
In words: plate saturation binding, absorbance at 450 nm, nonlinear regression. The note with it: varied aptamer, fixed rongalite; immobilised compound (implied by plate assay); buffer not stated.

Experiment [2] concerns A09 (DNA, aptamer) GACATATTCAGTCTGACAGCGGAAGCGGGTCAGTCCAACTCACGGTCTCGCATGCACGGGAGATGGACGAATATCGTCTAGC
Described as above. Conditions: varied aptamer, fixed rongalite; immobilised compound (implied by plate assay); buffer not stated.

Turning to `O=S(O)CO`, the figures for the Kd in experiment [1] and in experiment [2] were 39.81 ± 12.73 nM and 61.12 ± 16.36 nM, respectively.

For the origin of these results see PMC6153204 (2018).
